# Measured values reported in patent publication US20240408088A1, “PYRAZOLE DERIVATIVE, AND PREPARATION METHOD THEREFOR AND USE THEREOF IN MEDICINE” (Abbisko Therapeutics Co., Ltd., priority 2021, published 2024).
# Assays:
# [1] = tested on: HCT 116 MTAP wild-type cells; experiment: Human colon cancer HCT116 cell proliferation inhibition test (MTAP wild-type cells, CellTiter-Glo, 6 days); type: cell-based; settings: HCT-116, 144 h
# Experimental: (§1) • 1. HCT 116 MTAP knockout and MTAP wild-type cells were plated in 96-well flat bottom 5 plates, and cultured overnight with McCoy's 5A medium containing […]+1% penicillin-streptomycin at 37° C. and 5% CO2. • 2. On the next day, the compound was dissolved with DMSO, diluted with DMSO and medium successively and transferred to the cell plate. The final concentration of the compound was 10 μM, the compound was diluted 4 times, with 9 concentration gradients, and DMSO control was added. • 3. Cells that have not been treated with the compound were removed. CellTiter-Glo Luminescent Cell Viability Assay (Promega) was used to detect cell viability, the operation was performed with reference to the package insert of the kit, and then the cell plate was placed on EnVision Multilabel Reader to detect the cold light signal. • 4. Meanwhile, the cell plate treated with the compound was cultured at 37° C. and 5% CO2 for 6 consecutive days. • 5. Then, CellTiter-Glo was also used to detect cell viability. • 6. Finally, the four-parameter dose-response curve module of GraphPad Prism v 9.2.0 software was used to plot the dose-response curve and calculate the IC50 for proliferation inhibition (unit: nM).
# [2] = tested on: HCT 116 MTAP knockout cells; experiment: Human colon cancer HCT116 cell proliferation inhibition test (MTAP knockout cells, CellTiter-Glo, 6 days); type: cell-based
# Experimental: as §1
# [3] = Pharmacokinetic assay in mice, single oral administration; type: in vivo; settings: male, mouse, ICR mice, 10 mg/kg, plasma
# Experimental: The purpose of this trial is to study the pharmacokinetic behavior of some compounds of the present invention, and the administration method is: Single oral administration (PO) to ICR mice:
# ICR mice male N=3 original source: Shanghai Sippr-Bk Lab Animal Co., Ltd.
# The compounds were weighed and dissolved in 20% PG+10% Solutol HS15+70% pH 3 citrate buffer, respectively, shaken well and sonicated to prepare colorless clear solutions or suspensions. Nine mice were administered orally at a dose of 10 mg/kg after an overnight fast.
# About 90 μL of blood was collected via the submandibular vein per time point, heparin sodium anticoagulant was added, the sample was placed on ice after collection, and plasma was centrifuged within 1 hour (centrifugation conditions: 8,000 rpm, 6 minutes, 2-8° C.). The blood collection time points were 0, 0.25, 0.5, 1, 2, 4, 6, 8 and 24 h. The samples were stored in a refrigerator at −20° C.
# The plasma sample was 40 μL, 160 μL of ice-cold acetonitrile containing internal standard was added, vortexed for 3 minutes, and centrifuged at 11,000 rpm for 5 minutes. 100 μL of the supernatant was taken and added to 100 μL of water, 5 μL of the sample was taken and injected into LC/MS/MS for analysis (see the table below for the results).
# PK Results for Single Oral Administration (PO) of 10 mg/kg of Compounds to Mice
# [4] = Liver microsomal stability experiment; type: in vitro ADME; settings: pH 7.4; human liver microsomes, NADPH, 37° C., 0-45 min; read-out: Human Liver Microsome Stability Half-Life T1/2
# Experimental: Buffer solution A: 1.0 L of 0.1 M potassium dihydrogen phosphate buffer solution (containing 1.0 mM EDTA);
# Buffer solution B: 1.0 L of 0.1 M dipotassium phosphate buffer solution (containing 1.0 mM EDTA);
# Buffer solution C: Buffer solution A was added to 700 mL of buffer solution B. The addition was stopped when pH reached 7.4.
# The selected compounds of the examples and reference standards were dissolved in DMSO to prepare a stock solution of 10 mM.
# • 500 μM solution: 10 μL of 10 mM stock solution was added to 190 μL of ACN; • 1.5 μM dosing solution (dissolved in liver microsome solution, human liver microsomes were purchased from Xenotech): 18.75 μL of 20 mg/mL liver microsomes was added to 479.75 μL of buffer solution C, then 1.5 μL of 500 μM solution was added and mixed well with gentle shaking.
# NADPH was weighted, then an appropriate amount of buffer solution C was added to prepare a 6 mM of NADPH solution.
# • 1. 30 μL of 1.5 μM dosing solution was added to the wells set to different time points (0 min, 5 min, 15 min, 30 min and 45 min) on a 96-well plate. 2 replicates were made. • 2. Preparation of the 0-min sample: 135 μL of ACN (containing internal standard) was first added to the 0-min well, and 15 μL of 6 mM NADPH solution was added. • 3. A 96-well plate containing 1.5 μM of dosing solution and NADPH solution were pre-warmed in a 37° C. water bath for 5 minutes. • 4. Pre-warmed 15 μL of 6 mM NADPH solution was added to the wells set to 5 min, 15 min, 30 min and 45 min, the reaction was started and the timing was started. • 5. […] The solution was vortexed for 10 minutes, and the sample was centrifuged on a centrifuge at 5594×g for 15 minutes. • 6. 50 μL of supernatant was taken from the centrifuged sample, transferred to a 96-well sample plate that has been added with 50 μL of water, mixed, and finally sent to LC-MS/MS for analysis. The half-life was calculated based on the test results.
smiles,measurement,setting,value
"Cn1ncc(-c2cc(C#N)c3c(=O)[nH]nc(CN)c3c2)c1-c1c(F)cc2ccccc2c1C#N [Example 1, 1-(aminomethyl)-7-(5-(1-cyano-3-fluoronaphthalen-2-yl)-1-methyl-1H-pyrazol-4-yl)-4-oxo-3,4-dihydrophthalazine-5-carbonitrile]",IC50,[1],2.36 µM
same,IC50,[2],0.029 µM
same,AUC(0-t),[3],2530 ng·h/mL
same,Cmax,[3],1750 ng/mL
same,half-life,[3],1.2 h
same,half-life at 1 µM,[4],3.37 h
